One block for each compound: values may come before it.
What was measured:
Leishmania mexicana = assay: Leishmanistatic activity against Leishmania mexicana; format: functional
[1] = Selectivity index, ratio of cytotoxicity against mammalian cells to IC50 for Trypanosoma brucei rhodesiense; format: toxicity, cell-based; conditions: read-out: Selectivity Index
Trypanosoma cruzi = assay: Antitrypanosomal activity against Trypanosoma cruzi Tulahuen 2; format: functional, organism-based
[2] = Selectivity index, ratio of cytotoxicity against mammalian cells to IC50 for Trypanosoma cruzi Tulahuen 2; format: toxicity, cell-based; conditions: read-out: Selectivity Index
Trypanothione reductase = Trypanothione reductase (Trypanosoma cruzi, UniProt P28593); assay: Inhibition of Trypanosoma cruzi trypanothione reductase
Chain of Trypanothione reductase (P28593 whole entry): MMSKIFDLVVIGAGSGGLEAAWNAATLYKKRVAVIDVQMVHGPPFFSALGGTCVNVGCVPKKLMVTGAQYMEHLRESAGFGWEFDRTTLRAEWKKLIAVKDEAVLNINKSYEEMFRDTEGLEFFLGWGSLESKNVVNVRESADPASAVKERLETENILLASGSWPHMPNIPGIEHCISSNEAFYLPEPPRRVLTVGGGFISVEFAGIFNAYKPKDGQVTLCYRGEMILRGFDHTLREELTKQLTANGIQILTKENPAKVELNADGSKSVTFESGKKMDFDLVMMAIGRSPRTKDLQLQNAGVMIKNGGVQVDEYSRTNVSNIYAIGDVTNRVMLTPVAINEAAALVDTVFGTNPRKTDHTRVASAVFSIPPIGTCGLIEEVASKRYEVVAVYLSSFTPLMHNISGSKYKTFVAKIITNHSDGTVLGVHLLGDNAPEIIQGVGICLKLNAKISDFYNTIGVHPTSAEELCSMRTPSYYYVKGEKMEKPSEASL

SMILES: C/C(=N/Nc1ccccn1)[C@H]1CC[C@H]2[C@@H]3CC[C@H]4C[C@@H](O)CC[C@]4(C)[C@H]3CC[C@]12C
growth inhibition (GI) (Leishmania mexicana): 39%

SMILES: O=C1C=C(Oc2ccccc2)C(=O)c2ccccc21
selectivity ratio [1]: 74

IC50 (Trypanosoma cruzi): 15 µM
IC50 (Trypanothione reductase): 43 µM
SMILES: NC(=S)N/N=C/c1ccc(OCc2ccc3no[n+]([O-])c3c2)cc1
selectivity ratio [2]: 27

Reference: ChEMBL document CHEMBL1154774, “Neglected tropical diseases: multi-target-directed ligands in the search for novel lead candidates against Trypanosoma and Leishmania” (J Med Chem, 2009)
